Data from the NIST ThermoML archive (doi:10.1016/j.jct.2008.10.010).
± gives the expanded uncertainty stated by the source.

Legend:
[1] = molar heat capacity at constant pressure; conditions: 101.33 kPa, Liquid, Small sample (50 mg) DSC
[2] = 298.15 K; 101.33 kPa; Liquid; Pycnometric method
[3] = refractive index (Na D-line) (dimensionless); conditions: 298.15 K; 101.33 kPa; Liquid; Standard Abbe refractometry

CCC(C)(C)O [2-methylbutan-2-ol]
[1]
Conditions | molar heat capacity at constant pressure [J/K/mol]
284.14 K | 233.4 ± 3.6
285.15 K | 234.44 ± 3.6
286.16 K | 235.36 ± 3.6
287.14 K | 236.15 ± 3.7
288.15 K | 237.23 ± 3.7
289.14 K | 238.19 ± 3.7
290.14 K | 239.11 ± 3.7
291.15 K | 240.18 ± 3.7
292.14 K | 241.19 ± 3.7
293.14 K | 242.22 ± 3.8
294.15 K | 243.25 ± 3.8
295.14 K | 244.25 ± 3.8
296.14 K | 245.3 ± 3.8
297.15 K | 246.36 ± 3.8
298.14 K | 247.43 ± 3.8
298.15 K | 247.44 ± 3.8
298.16 K | 247.45 ± 3.8
299.14 K | 248.43 ± 3.9
300.15 K | 249.45 ± 3.9
301.14 K | 250.56 ± 3.9
302.14 K | 251.71 ± 3.9
303.15 K | 252.8 ± 3.9
304.14 K | 253.86 ± 3.9
305.14 K | 255.01 ± 4
306.15 K | 256.09 ± 4
307.16 K | 257.16 ± 4
308.14 K | 258.22 ± 4
309.15 K | 259.29 ± 4
310.16 K | 260.36 ± 4
311.14 K | 261.32 ± 4
312.15 K | 262.41 ± 4.1
313.16 K | 263.51 ± 4.1
314.14 K | 264.5 ± 4.1
315.15 K | 265.53 ± 4.1
316.16 K | 266.49 ± 4.1
317.14 K | 267.5 ± 4.1
318.15 K | 268.57 ± 4.2
319.15 K | 269.56 ± 4.2
320.14 K | 270.43 ± 4.2
321.15 K | 271.49 ± 4.2
322.15 K | 272.37 ± 4.2
323.14 K | 273.32 ± 4.2
324.15 K | 274.25 ± 4.2
325.15 K | 275.15 ± 4.3
326.14 K | 276.09 ± 4.3
327.15 K | 276.89 ± 4.3
328.15 K | 277.86 ± 4.3
329.14 K | 278.7 ± 4.3
330.14 K | 279.59 ± 4.3
331.15 K | 280.35 ± 4.3
332.14 K | 281.18 ± 4.4
333.14 K | 282.05 ± 4.4
334.15 K | 283 ± 4.4
335.14 K | 283.68 ± 4.4
336.14 K | 284.35 ± 4.4
337.15 K | 285.19 ± 4.4
338.14 K | 285.94 ± 4.4
339.14 K | 286.59 ± 4.4
340.15 K | 287.37 ± 4.5
341.13 K | 287.88 ± 4.5
342.14 K | 288.59 ± 4.5
343.15 K | 289.15 ± 4.5
344.16 K | 289.83 ± 4.5
345.14 K | 290.42 ± 4.5
346.15 K | 290.94 ± 4.5
347.16 K | 291.42 ± 4.5
348.14 K | 292.03 ± 4.5
349.15 K | 292.61 ± 4.5
350.16 K | 293.03 ± 4.5
351.14 K | 293.51 ± 4.5
352.15 K | 293.87 ± 4.5
353.15 K | 294.39 ± 4.6
354.15 K | 294.87 ± 4.6
355.13 K | 295.24 ± 4.6
356.14 K | 295.66 ± 4.6
357.15 K | 296.1 ± 4.6
358.15 K | 296.36 ± 4.6
359.14 K | 296.72 ± 4.6
360.15 K | 296.98 ± 4.6
361.15 K | 297.18 ± 4.6
362.15 K | 297.48 ± 4.6
363.14 K | 297.69 ± 4.6
364.15 K | 297.95 ± 4.6
365.15 K | 298.16 ± 4.6
366.14 K | 298.39 ± 4.6
367.15 K | 298.46 ± 4.6
368.15 K | 298.75 ± 4.6
368.76 K | 298.79 ± 4.6

Conditions | mass density [kg/m3] | refractive index
[2] | 804.32 ± 0.79 | –
[3] | – | 1.4025 ± 0.0008

OC1CCCC1 [cyclopentanol]
[1]
Conditions | molar heat capacity at constant pressure [J/K/mol]
284.16 K | 170.24 ± 2.6
285.15 K | 170.99 ± 2.6
286.16 K | 171.81 ± 2.7
287.14 K | 172.53 ± 2.7
288.15 K | 173.41 ± 2.7
289.16 K | 174.28 ± 2.7
290.14 K | 175.01 ± 2.7
291.15 K | 175.87 ± 2.7
292.16 K | 176.75 ± 2.7
293.14 K | 177.58 ± 2.8
294.15 K | 178.43 ± 2.8
295.16 K | 179.3 ± 2.8
296.14 K | 180.09 ± 2.8
297.15 K | 180.97 ± 2.8
298.14 K | 181.8 ± 2.8
298.15 K | 181.82 ± 2.8
298.16 K | 181.83 ± 2.8
299.14 K | 182.68 ± 2.8
300.15 K | 183.51 ± 2.8
301.16 K | 184.44 ± 2.9
302.14 K | 185.33 ± 2.9
303.15 K | 186.22 ± 2.9
304.16 K | 187.09 ± 2.9
305.14 K | 188.03 ± 2.9
306.15 K | 188.94 ± 2.9
307.16 K | 189.83 ± 2.9
308.14 K | 190.71 ± 3
309.15 K | 191.61 ± 3
310.16 K | 192.53 ± 3
311.14 K | 193.42 ± 3
312.15 K | 194.35 ± 3
313.16 K | 195.28 ± 3
314.14 K | 196.15 ± 3
315.15 K | 197.1 ± 3
316.16 K | 198.01 ± 3.1
317.14 K | 198.91 ± 3.1
318.15 K | 199.88 ± 3.1
319.15 K | 200.81 ± 3.1
320.14 K | 201.63 ± 3.1
321.15 K | 202.63 ± 3.1
322.15 K | 203.57 ± 3.1
323.14 K | 204.44 ± 3.2
324.15 K | 205.36 ± 3.2
325.15 K | 206.28 ± 3.2
326.16 K | 207.24 ± 3.2
327.15 K | 208.09 ± 3.2
328.15 K | 209.05 ± 3.2
329.14 K | 209.96 ± 3.2
330.14 K | 210.87 ± 3.3
331.15 K | 211.73 ± 3.3
332.14 K | 212.64 ± 3.3
333.14 K | 213.55 ± 3.3
334.15 K | 214.51 ± 3.3
335.16 K | 215.32 ± 3.3
336.14 K | 216.18 ± 3.4
337.15 K | 217.08 ± 3.4
338.16 K | 218.05 ± 3.4
339.14 K | 218.88 ± 3.4
340.15 K | 219.81 ± 3.4
341.16 K | 220.6 ± 3.4
342.14 K | 221.48 ± 3.4
343.15 K | 222.33 ± 3.4
344.16 K | 223.27 ± 3.5
345.14 K | 224.05 ± 3.5
346.15 K | 224.85 ± 3.5
347.16 K | 225.68 ± 3.5
348.14 K | 226.51 ± 3.5
349.15 K | 227.32 ± 3.5
350.15 K | 228.13 ± 3.5
351.14 K | 228.9 ± 3.5
352.15 K | 229.66 ± 3.6
353.15 K | 230.44 ± 3.6

Conditions | mass density [kg/m3] | refractive index
[2] | 942.86 ± 0.95 | –
[3] | – | 1.4512 ± 0.0008
